From article PMC6691788, “Design and synthesis of phthalazine-based compounds as potent anticancer agents with potential antiangiogenic activity via VEGFR-2 inhibition” (Journal of Enzyme Inhibition and Medicinal Chemistry, 2019)

Key:
[1] = system: CCRF-CEM; assay: NCI 60 cell panel SRB screen; format: cell-based, human; conditions: Homo sapiens, single dose 10 μM, read-out: percent cell growth promotion
[2] = system: K-562; assay: NCI 60 cell panel SRB screen; format: cell-based; conditions: Homo sapiens, K562; K-562, single dose 10 μM; read-out: percent cell growth promotion
[3] = system: RPMI-8226; assay: NCI 60 cell panel SRB screen; format: cell-based; conditions: Homo sapiens; RPMI-8226, single dose 10 μM; read-out: percent cell growth promotion
[4] = system: SR; assay: NCI 60 cell panel SRB screen; format: cell-based; conditions: Homo sapiens, single dose 10 μM, read-out: percent cell growth promotion
[5] = system: A549/ATCC; assay: NCI 60 cell panel SRB screen; format: cell-based; conditions: Homo sapiens, single dose 10 μM, read-out: percent cell growth promotion
[6] = system: HOP-62; assay: NCI 60 cell panel SRB screen; format: cell-based; conditions: Homo sapiens; HOP-62, single dose 10 μM; read-out: percent cell growth promotion
[7] = system: HCT-116; assay: NCI 60 cell panel SRB screen; format: cell-based; conditions: Homo sapiens; HCT-116, single dose 10 μM; read-out: percent cell growth promotion
[8] = system: SW-620; assay: NCI 60 cell panel SRB screen; format: cell-based; conditions: Homo sapiens; SW-620, single dose 10 μM; read-out: percent cell growth promotion
[9] = system: SF-268; assay: NCI 60 cell panel SRB screen; format: cell-based; conditions: Homo sapiens; SF-268, single dose 10 μM; read-out: percent cell growth promotion
[10] = system: SF-295; assay: NCI 60 cell panel SRB screen; format: cell-based; conditions: Homo sapiens; SF-295, single dose 10 μM; read-out: percent cell growth promotion
[11] = system: MALME-3M; assay: NCI 60 cell panel SRB screen; format: cell-based; conditions: Homo sapiens, Malme-3M, read-out: percent cell growth promotion
[12] = system: M14; assay: NCI 60 cell panel SRB screen; format: cell-based; conditions: Homo sapiens, M14, read-out: percent cell growth promotion
[13] = system: SK-MEL-5; assay: NCI 60 cell panel SRB screen; format: cell-based; conditions: Homo sapiens, SK-MEL-5, read-out: percent cell growth promotion
[14] = system: UACC-257; assay: NCI 60 cell panel SRB screen; format: cell-based; conditions: Homo sapiens, UACC-257, read-out: percent cell growth promotion
[15] = system: UACC-62; assay: NCI 60 cell panel SRB screen; format: cell-based; conditions: Homo sapiens, UACC-62, read-out: percent cell growth promotion
[16] = system: OVCAR-3; assay: NCI 60 cell panel SRB screen; format: cell-based; conditions: Homo sapiens; OVCAR-3, single dose 10 μM; read-out: percent cell growth promotion
[17] = system: OVCAR-8; assay: NCI 60 cell panel SRB screen; format: cell-based; conditions: Homo sapiens; OVCAR-8, single dose 10 μM; read-out: percent cell growth promotion
[18] = system: 786-0; assay: NCI 60 cell panel SRB screen; format: cell-based; conditions: Homo sapiens; 786-0, single dose 10 μM; read-out: percent cell growth promotion
[19] = system: DU-145; assay: NCI 60 cell panel SRB screen; format: cell-based; conditions: Homo sapiens; DU-145, single dose 10 μM; read-out: percent cell growth promotion
[20] = molecular target: T1, VEGFR-2 tyrosine kinase (Homo sapiens, UniProt P35968); assay: In vitro VEGFR-2 tyrosine kinase assay (BPS Bioscience); format: biochemical; conditions: read-out: VEGFR-2 % inhibition; 10 μM concentration
T1 construct: purchased BPS Bioscience 40301
T1 sequence (P35968 20-1356): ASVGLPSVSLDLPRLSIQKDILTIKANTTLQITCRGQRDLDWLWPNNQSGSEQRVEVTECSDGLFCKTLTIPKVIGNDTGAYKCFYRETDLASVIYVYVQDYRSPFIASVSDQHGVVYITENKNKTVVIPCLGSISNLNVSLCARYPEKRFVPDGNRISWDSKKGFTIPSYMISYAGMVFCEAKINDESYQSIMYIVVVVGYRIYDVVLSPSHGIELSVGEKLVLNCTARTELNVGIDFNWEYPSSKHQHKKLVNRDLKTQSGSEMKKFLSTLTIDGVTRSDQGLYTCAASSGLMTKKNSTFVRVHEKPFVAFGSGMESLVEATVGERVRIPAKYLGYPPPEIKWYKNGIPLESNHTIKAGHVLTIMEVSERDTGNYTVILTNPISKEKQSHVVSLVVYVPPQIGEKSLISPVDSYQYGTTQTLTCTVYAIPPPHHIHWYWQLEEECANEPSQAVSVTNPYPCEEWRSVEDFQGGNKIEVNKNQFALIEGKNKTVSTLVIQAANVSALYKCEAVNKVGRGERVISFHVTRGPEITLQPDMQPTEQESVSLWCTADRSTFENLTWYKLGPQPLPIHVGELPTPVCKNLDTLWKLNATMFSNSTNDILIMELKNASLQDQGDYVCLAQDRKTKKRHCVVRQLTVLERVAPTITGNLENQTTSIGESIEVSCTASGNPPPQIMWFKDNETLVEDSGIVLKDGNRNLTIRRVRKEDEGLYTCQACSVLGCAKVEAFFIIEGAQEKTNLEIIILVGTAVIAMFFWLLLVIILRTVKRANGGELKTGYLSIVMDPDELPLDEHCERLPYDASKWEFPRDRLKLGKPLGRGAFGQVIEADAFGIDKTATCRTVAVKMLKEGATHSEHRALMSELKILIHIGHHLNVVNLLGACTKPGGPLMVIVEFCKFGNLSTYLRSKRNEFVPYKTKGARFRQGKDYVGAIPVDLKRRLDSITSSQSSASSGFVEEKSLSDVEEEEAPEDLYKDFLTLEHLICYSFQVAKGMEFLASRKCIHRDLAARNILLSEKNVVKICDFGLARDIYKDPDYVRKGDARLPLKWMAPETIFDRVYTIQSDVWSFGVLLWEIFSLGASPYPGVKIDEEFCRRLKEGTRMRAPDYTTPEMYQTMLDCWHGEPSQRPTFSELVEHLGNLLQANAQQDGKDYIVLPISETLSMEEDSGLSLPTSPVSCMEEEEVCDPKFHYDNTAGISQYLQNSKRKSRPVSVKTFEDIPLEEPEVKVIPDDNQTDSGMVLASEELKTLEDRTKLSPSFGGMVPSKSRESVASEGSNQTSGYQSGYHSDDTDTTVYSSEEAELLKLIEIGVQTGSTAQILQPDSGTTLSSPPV
In short: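 For IC50, ADP formation after a 30-min 30 °C reaction was detected by ADP-Glo luminescence in duplicate, blank-subtracted and fitted as log inhibitor versus normalised response. The 10 µM single-dose test instead measured remaining ATP (Kinase-Glo Plus) after 40 min at 30 °C with poly(Glu,Tyr) substrate, 10 μM ATP, pH 7.4, 1% DMSO.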

Q: What does the source list for `c1ccc(N2CCN(c3nncc4ccccc34)CC2)nc1` [Compound 8d, 1–(4-(Pyridin-2-yl)piperazin-1-yl)phthalazine]?
A: activity at 10 µM [1]: 102%; activity at 10 µM [2]: 106%; activity at 10 µM [3]: 107%; activity at 10 µM [4]: 103%; activity at 10 µM [5]: 100%; activity at 10 µM [6]: 110%; activity at 10 µM [7]: 103%; activity at 10 µM [8]: 104%; activity at 10 µM [9]: 103%; activity at 10 µM [10]: 107%; activity at 10 µM [11]: 109%; activity at 10 µM [12]: 102%; activity at 10 µM [13]: 97.5%; activity at 10 µM [14]: 99%; activity at 10 µM [15]: 99.6%; activity at 10 µM [16]: 99.9%; activity at 10 µM [17]: 97.8%; activity at 10 µM [18]: 104%; activity at 10 µM [19]: 99%; inhibition at 10 µM [20]: 5%

Q: With `CCOC(=O)N1CCN(c2nnc(C)c3ccccc23)CC1` [Compound 8f, Ethyl 4–(4-methylphthalazin-1-yl)piperazine-1-carboxylate] as the compound, how does the activity at 10 µM [1] read?
A: Its activity at 10 µM is 103%.

Q: What about the activity at 10 µM [2] of the same compound?
A: Its activity at 10 µM is 100%.

Q: What about the activity at 10 µM [3] of the same compound?
A: Its activity at 10 µM is 96.9%.

Q: And the activity at 10 µM [4]?
A: The activity at 10 µM was 101%.

Q: What about the activity at 10 µM [5] of the same compound?
A: Its activity at 10 µM is 94.1%.

Q: And the activity at 10 µM [6]?
A: The activity at 10 µM was 100%.

Q: And the activity at 10 µM [7]?
A: The activity at 10 µM was 103%.

Q: And the activity at 10 µM [8]?
A: The activity at 10 µM was 104%.

Q: And the activity at 10 µM [9]?
A: The activity at 10 µM was 101%.

Q: What about the activity at 10 µM [10] of the same compound?
A: Its activity at 10 µM is 94.2%.

Q: What about the activity at 10 µM [11] of the same compound?
A: Its activity at 10 µM is 102%.

Q: What about the activity at 10 µM [12] of the same compound?
A: The activity at 10 µM was 104%.

Q: What about the activity at 10 µM [13] of the same compound?
A: Its activity at 10 µM is 97.5%.

Q: What about the activity at 10 µM [14] of the same compound?
A: The activity at 10 µM was 92.4%.

Q: And the activity at 10 µM [15]?
A: Its activity at 10 µM is 109%.

Q: And the activity at 10 µM [16]?
A: Its activity at 10 µM is 112%.

Q: And the activity at 10 µM [17]?
A: The activity at 10 µM was 102%.

Q: What about the activity at 10 µM [18] of the same compound?
A: Its activity at 10 µM is 93.3%.

Q: And the activity at 10 µM [19]?
A: Its activity at 10 µM is 100%.

Q: What about the inhibition at 10 µM [20] of the same compound?
A: Its inhibition at 10 µM is 14%.

Q: `Cc1nnc(N2CCN(c3ccccc3)CC2)c2ccccc12` [Compound 8g, 1-Methyl-4–(4-phenylpiperazin-1-yl)phthalazine] was tested. Which activity at 10 µM [1] did it give?
A: The activity at 10 µM was 103%.

Q: And the activity at 10 µM [2]?
A: The activity at 10 µM was 116%.

Q: What about the activity at 10 µM [3] of the same compound?
A: Its activity at 10 µM is 104%.

Q: What about the activity at 10 µM [4] of the same compound?
A: Its activity at 10 µM is 107%.

Q: What about the activity at 10 µM [5] of the same compound?
A: The activity at 10 µM was 99.3%.

Q: What about the activity at 10 µM [6] of the same compound?
A: Its activity at 10 µM is 97.1%.

Q: What about the activity at 10 µM [7] of the same compound?
A: Its activity at 10 µM is 113%.

Q: And the activity at 10 µM [8]?
A: Its activity at 10 µM is 107%.

Q: And the activity at 10 µM [9]?
A: Its activity at 10 µM is 108%.

Q: And the activity at 10 µM [10]?
A: Its activity at 10 µM is 96%.

Q: What about the activity at 10 µM [11] of the same compound?
A: Its activity at 10 µM is 114%.

Q: And the activity at 10 µM [12]?
A: Its activity at 10 µM is 94.8%.

Q: What about the activity at 10 µM [13] of the same compound?
A: The activity at 10 µM was 98.1%.

Q: And the activity at 10 µM [14]?
A: The activity at 10 µM was 93%.

Q: What about the activity at 10 µM [15] of the same compound?
A: The activity at 10 µM was 110%.

Q: And the activity at 10 µM [16]?
A: Its activity at 10 µM is 108%.

Q: And the activity at 10 µM [17]?
A: The activity at 10 µM was 97.1%.

Q: What about the activity at 10 µM [18] of the same compound?
A: The activity at 10 µM was 100%.

Q: What about the activity at 10 µM [19] of the same compound?
A: The activity at 10 µM was 111%.

Q: What about the inhibition at 10 µM [20] of the same compound?
A: The inhibition at 10 µM was 13%.
